Assay results as given in the supplement of paper PMC10307832.

Compound: CCN(CCO)CCCC(C)Nc1ccnc2cc(Cl)ccc12 [Hydroxychloroquine]
Experiment: relative viability (nuclei count vs DMSO), 5 days (fraction); higher = more cells survive
In short: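 Lung cancer cell lines in 1536-well plates were exposed by pinning to five library-drug doses (not always all listed) √10 apart, following an overnight hold at 37 °C. MetaXpress counted Hoechst-stained nuclei from 4× images taken after 5 days without medium change. Viability is the median ratio of treated-well to vehicle-well nuclei across plates. Plates required control CV below 25% and at least one doubling.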

| Cell Line | relative viability (0.5 µM) | relative viability (1.581 µM) | relative viability (5 µM) | relative viability (15.81 µM) | relative viability (50 µM) |
| --- | --- | --- | --- | --- | --- |
| 201T | 0.965 | 0.974 | 0.968 | 0.981 | 1.04 |
| A-427 | 0.995 | 0.945 | 0.964 | 1 | 0.968 |
| ABC-1 | 0.89 | 0.854 | 0.856 | 0.885 | 0.91 |
| BEN | 1.04 | 0.894 | 0.977 | 1.06 | 1.07 |
| CAL-12T | 1.01 | 0.973 | 0.957 | 0.979 | 1.02 |
| COR-L23 | 1.06 | 1.17 | 1.16 | 1.08 | 1.03 |
| COR-L 105 | 0.875 | 0.935 | 0.876 | 0.804 | 0.864 |
| Calu-6 | 1.04 | 1.03 | 1 | 1.1 | 1 |
| ChaGo-K-1 | 0.958 | 1.07 | 0.911 | 1.01 | 1.03 |
| EKVX | 0.962 | 0.902 | 0.893 | 1.02 | 1.01 |
| EMC-BAC-2 | 1.05 | 0.824 | 0.953 | 1.02 | 0.912 |
| EPLC-272H | 0.963 | 0.843 | 0.98 | 0.94 | 1.08 |
| H3255 | 0.982 | 0.946 | 0.974 | 0.951 | 0.951 |
| HARA | 1.23 | 0.938 | 0.876 | 1 | 0.903 |
| HCC-15 | 1.08 | 0.956 | 1.04 | 1.06 | 1.04 |
| HCC-44 | 1.04 | 0.996 | 1.01 | 1.01 | 1.04 |
| HCC-78 | 1.04 | 0.903 | 1.03 | 1.01 | 0.94 |
| HCC-366 | 1.01 | 0.981 | 0.986 | 1.06 | 1.03 |
| HCC-827 | 1.03 | 1.02 | 1.04 | 1.02 | 1.06 |
| HOP-62 | 1.04 | 1.01 | 1.05 | 1.08 | 1.08 |
| IA-LM | 0.922 | 0.971 | 0.902 | 0.962 | 0.959 |
| LC-2-ad | 1 | 0.982 | 0.996 | 0.998 | 1.02 |
| LCLC-97TM1 | 1.14 | 1.06 | 1.03 | 0.944 | 0.946 |
| LCLC-103H | 1.01 | 0.932 | 0.998 | 1 | 1.01 |
| LK-2 | 1.01 | 0.96 | 0.941 | 1.14 | 1.24 |
| LOU-NH91 | 0.96 | 0.794 | 0.944 | 0.95 | 0.901 |

| Cell Line | relative viability (0.5 µM) | relative viability (1.581 µM) | relative viability (5 µM) | relative viability (15.81 µM) | relative viability (50 µM) |
| --- | --- | --- | --- | --- | --- |
| LU99A | 1.01 | 0.874 | 0.938 | 0.951 | 1.02 |
| LXF-289 | 1.06 | 1.01 | 1.03 | 1.02 | 1.07 |
| NCI-H23 | 1.04 | 0.809 | 0.961 | 0.915 | 1.01 |
| NCI-H322M | 0.955 | 0.933 | 0.957 | 0.935 | 0.983 |
| NCI-H358 | 0.851 | 0.884 | 0.88 | 0.888 | 0.877 |
| NCI-H441 | 1.05 | 0.926 | 1.33 | 1.13 | 1.03 |
| NCI-H460 | 0.973 | 1 | 1.01 | 1.03 | 1.11 |
| NCI-H520 | 1.07 | 1.01 | 0.906 | 0.923 | 1.07 |
| NCI-H522 | 1.01 | 0.844 | 0.95 | 0.836 | 0.954 |
| NCI-H596 | 1.04 | 0.934 | 0.892 | 1.03 | 1.15 |
| NCI-H647 | 1 | 1.07 | 0.894 | 0.816 | 0.975 |
| NCI-H650 | 1 | 0.896 | 0.741 | 1.04 | 0.955 |
| NCI-H661 | 0.966 | 0.93 | 0.921 | 0.976 | 0.994 |
| NCI-H727 | 1.04 | 0.815 | 1.04 | 0.898 | 0.911 |
| NCI-H838 | 1.02 | 0.958 | 0.984 | 0.975 | 1.12 |
| NCI-H1355 | 1.04 | 0.956 | 1 | 0.983 | 1.05 |
| NCI-H1395 | 0.887 | 0.847 | 0.81 | 0.83 | 0.854 |
| NCI-H1437 | 0.994 | 1 | 0.926 | 0.997 | 1.04 |
| NCI-H1563 | 0.946 | 0.744 | 0.912 | 0.99 | 0.966 |
| NCI-H1648 | 0.817 | 1.09 | 0.775 | 0.992 | 0.825 |
| NCI-H1650 | 0.956 | 1.08 | 0.857 | 0.806 | 0.903 |
| NCI-H1651 | 0.974 | 0.981 | 1 | 1.01 | 1.1 |
| NCI-H1666 | 0.986 | 0.944 | 1.01 | 0.966 | 0.952 |
| NCI-H1703 | 0.912 | 0.79 | 0.946 | 0.924 | 0.898 |
| NCI-H1734 | 0.918 | 0.869 | 0.989 | 0.942 | 1.02 |
| NCI-H1755 | 1.05 | 0.899 | 0.928 | 0.99 | 0.941 |

| Cell Line | relative viability (0.5 µM) | relative viability (1.581 µM) | relative viability (5 µM) | relative viability (15.81 µM) | relative viability (50 µM) |
| --- | --- | --- | --- | --- | --- |
| NCI-H1792 | 0.945 | 1.03 | 0.859 | 0.783 | 0.776 |
| NCI-H1793 | 1.03 | 0.791 | 0.916 | 0.866 | 0.998 |
| NCI-H1915 | 0.961 | 1.01 | 0.981 | 1.01 | 1.06 |
| NCI-H1944 | 0.983 | 0.966 | 0.925 | 0.919 | 0.994 |
| NCI-H1975 | 0.973 | 0.977 | 0.91 | 1 | 1.06 |
| NCI-H1993 | 0.974 | 0.842 | 0.939 | 0.883 | 1.02 |
| NCI-H2009 | 0.979 | 1.04 | 1.06 | 0.994 | 1.07 |
| NCI-H2023 | 1 | 1.03 | 0.941 | 0.981 | 1.13 |
| NCI-H2085 | 1 | 0.859 | 0.964 | 0.977 | 0.989 |
| NCI-H2087 | 0.971 | 0.923 | 1 | 1.06 | 0.98 |
| NCI-H2126 | 1.02 | 0.967 | 0.974 | 0.992 | 1.06 |
| NCI-H2170 | 0.969 | 1.15 | 0.992 | 0.995 | 1.15 |
| NCI-H2228 | 1.05 | 0.959 | 0.945 | 1.11 | 1.08 |
| NCI-H2342 | 0.986 | 0.897 | 0.987 | 0.991 | 1.13 |
| NCI-H2347 | 1.1 | 0.935 | 1.04 | 0.965 | 1.03 |
| NCI-H2405 | 1.03 | 0.955 | 0.968 | 1 | 1.01 |
| NCI-H3122 | 0.999 | 0.997 | 0.99 | 1.05 | 1.06 |
| PC-3 [JPC-3] | 1.01 | 1.08 | 0.957 | 1.06 | 1.02 |
| PC-14 | 1.03 | 0.961 | 0.956 | 1.05 | 1.01 |
| RERF-LC-KJ | 0.937 | 0.978 | 0.99 | 0.939 | 1.05 |
| SK-LU-1 | 1.19 | 0.983 | 0.949 | 1.03 | 1.08 |
| SK-MES-1 | 1.06 | 0.959 | 1.07 | 1.05 | 0.995 |
| SW 900 | 0.879 | 0.729 | 0.837 | 0.717 | 0.889 |
| SW 1573 | 0.918 | 0.832 | 0.983 | 1.07 | 1.02 |
| UMC-11 | 0.988 | 0.849 | 1.01 | 1.05 | 1.12 |
